Source: US4313944A, “Cycloheptindoles, compositions and use” (Roussel Uclaf, priority 1980, dated 1982)
Structures can show the parent of a compound that is named as a salt.

Experiments:
mice = experiment: Acute toxicity; assay type: in vivo; details: oral, maximum dose which did not cause mortality
male mice = experiment: Hypobare anoxia study; assay type: in vivo; details: oral, 30 minutes before test, 90 mm Hg
Description: Groups of 10 male mice weighing about 20 to 22 g were not fed for 5 hours and were placed in a hermetically sealed enclosure with a pressure of 90 mm Hg maintained by a pump to determine the time of their survival. […] The results of Table II show the increase of survival time expressed as a percentage of control animals.

[1] = system: nigrostriatal dopaminergic bundle (6-hydroxydopamine unilateral lesion); experiment: Rotation behavior after unilateral injury of nigrostriatal bundle; assay type: in vivo, male rats; details: rats, intraperitoneal
Description: A. Rotation behavior after unilateral injury of nigrostriatal bundle
The unilateral lesion was effected with male rats weighing about 220 g by unilateral injection into nigrostriatal dopaminergic bundle of 8 μg of 6-hydroxydopamine in a solution of 2 μg per μl by the method of Ungerstedt [Acta. Physiol. Scand., Vol. 82 (1971), supp. 367, p. 69-93]. In the animals, the direct dopaminergic agonists such as apomorphine administered generally induces a rotating behavior in the contralateral direction to the injured side. The test compounds were administered more than 5 weeks after the lesion and the rats were placed in an automatic rotometer which determine the number of rotations effected by each animal in 2 directions.
The products of Examples 1, 2 and 3 were intraperitoneally administered and the product of Example 1 provoked 337±99 contralateral rotations at a dose of 5 mg/kg, product of Example 2 provoked 364±50 contralateral rotations at a dose of 1 mg/kg and the product of Example 3 provoked 657±205 contralateral rotations at a dose of 0.1 mg/kg.

dopaminergic receptors = molecular target: T1, dopaminergic receptors (Rattus norvegicus, UniProt P61169); experiment: Affinity for dopaminergic receptors (inhibition of spiroperidol 3H fixation); assay type: binding; details: for fixation to dopaminergic receptors (in words): results of Table I; for IC50: spiroperidol 3H, rat striated bodies, 37° C., pH 7.3, 20 minutes, read-out: 50% inhibiting concentration
T1 construct: from tissue; host or cells: rat striatum (striated bodies), crude membrane preparation
Description: B. Affinity for dopaminergic receptors
The striated bodies taken from the brains of 6 male rats weighing about 150 g were homogenized at one 20th (weight/volume) in 0.32 M sucrose and the homogenized mixture was centrifuged at 1000 g for 10 minutes at 0° C., the surnageant was centrifuged at 30,000 g for 15 minutes at 4° C. The culot was taken up in 25 ml of buffered Tris HCl 50 mM with a pH of 7.7 and the mixture was centrifuged at 30,000 g for 15 minutes at 4° C. The new culot was taken up in 50 ml of buffered Krebs Tris HCl with a pH of 7.3 and the suspension was preincubated at 37° C. for 10 minutes and was then incubated for 20 minutes in a water bath at 37° C. in the presence of spiroperidol 3H, alone or with an excess of haloperidol or with increasing units of the product being tested. The incubated suspensions were filtered with Whatman GF/C and the filters were washed 3 times with 5 ml of buffered Tris HCl 50 mM. The radioactivity of the filters was measured by liquid scintillation and the curve of percentage of fixation of spiroperidol 3H as a function of concentration of test product was determined.

[2] = system: ulcers in the stomachs of rats; experiment: Antiulcerous activity (Shay ulcers by ligature of pylore); assay type: in vivo; details: oral, about 16 hours after treatment
Source text: The technique used is described by Shay et al [Gastroenterology, Vol. 5 (1945), p. 43]. Ulcers were induced in the stomachs of rats by ligature of pylore. The animals were anesthesized with ether and a longitudinal incision of about 1 cm was made beneath the sternum, the glandular part of the stomach and the duodenum were taken out and a ligature was placed a few mm below the pylore. The muscular surface was left as it was and the skin was sutured by 2 clamps.
The animals received orally immediately after a dispersive or the test product in a volume of 0.5 ml/100 g and were kept without food or water until they were killed by carotidinal bleeding which was about 16 hours after treatment. Before removal of the stomach, a ligature was placed above the […]. The gastric liquid was collected to measure the pH and the stomach was then opened by a large curve, was rinsed with physiological serum and was spead out on millimetric paper for examination with a binocular lens. The gravity of the lesions was macroscopically evaluated on a scale of 0 to 4 for each stomach to determine for each group of rats the average intensity of ulcerations.

T1 sequence (P61169 whole entry): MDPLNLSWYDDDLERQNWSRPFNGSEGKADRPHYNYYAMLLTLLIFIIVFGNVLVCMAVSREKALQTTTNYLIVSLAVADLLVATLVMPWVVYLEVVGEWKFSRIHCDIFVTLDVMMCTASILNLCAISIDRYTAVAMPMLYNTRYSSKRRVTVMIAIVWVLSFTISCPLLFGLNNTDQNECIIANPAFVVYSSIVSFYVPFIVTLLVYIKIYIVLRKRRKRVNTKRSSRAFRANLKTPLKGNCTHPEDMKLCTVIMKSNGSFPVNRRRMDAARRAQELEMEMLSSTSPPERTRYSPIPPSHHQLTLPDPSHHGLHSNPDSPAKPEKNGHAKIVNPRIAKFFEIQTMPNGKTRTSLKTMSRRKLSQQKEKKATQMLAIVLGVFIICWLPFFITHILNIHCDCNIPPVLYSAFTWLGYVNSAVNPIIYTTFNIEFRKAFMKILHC

Compound | DL0 (mice) [mg/kg] | fixation to dopaminergic receptors (in words) (dopaminergic receptors) | IC50 (dopaminergic receptors) [nM] | % of increase of survival time (male mice; dose 5 mg/kg) [%] | % of increase of survival time (male mice; dose 25 mg/kg) [%] | other results
c1cc2c3c(c[nH]c3c1)CC[C@H]1NCCO[C@H]21 (relative stereo) [Example 1, (7a R,S-trans)-4,6,7,7a,8,9,10,11a-octahydro-[1,4]-oxazino [2',3'-4,5]-cyclohept[1,2,3-c,d]-indole hydrochloride] | 200 | do fix dopaminergic receptors | 10000 | – | – | % of increase of survival time (male mice; dose 2 mg/kg): 14%; % of increase of survival time (male mice; dose 10 mg/kg): 51%; % of increase of survival time (male mice; dose 50 mg/kg): 145%; contralateral rotations ([1]; 5 mg/kg): 337±99 contralateral rotations
CN1CCO[C@@H]2c3cccc4[nH]cc(c34)CC[C@H]21 (relative stereo) [Example 2, (7a-R,S-trans) 8-methyl-4,6,7,7a,8,9,10,11a-octahydro-[1,4]-oxazino-[2',3'-4,5]cyclohept[1,2,3-c,d]indole hydrochloride] | 100 | do fix dopaminergic receptors | 950 | 30 | 64 | contralateral rotations ([1]; 1 mg/kg): 364±50 contralateral rotations
CCCN1CCO[C@@H]2c3cccc4[nH]cc(c34)CC[C@H]21 (relative stereo) [Example 3, (7a-R,S-trans)-4,6,7,7a,8,9,10,11a-octahydro-8-propyl-[1,4]-oxazino-[2',3'-4,5]cyclohept[1,2,3-c,d]indole hydrochloride] | 100 | do fix dopaminergic receptors | 270 | 102 | 86 | % protection against ulceration ([2]; dose 5 mg/kg): 51%; % protection against ulceration ([2]; dose 25 mg/kg): 73%; % of increase of survival time (male mice; dose 1 mg/kg): 3%; contralateral rotations ([1]; 0.1 mg/kg): 657±205 contralateral rotations
CCCN1CCO[C@@H]2c3cccc4[nH]c(Br)c(c34)CC[C@H]21 (relative stereo) [Example 4, (7a-R,S-trans) 5-bromo-4,6,7,7a,8,9,10,11a-octahydro-8-propyl-[1,4]-oxazino-[2',3'-4,5]cyclohept[1,2,3-c,d]indole hydrochloride] | > 1000 | – | – | – | – | –
CCCN1CCO[C@@H]2c3cccc4c3c(cn4C)CC[C@H]21 (relative stereo) [Example 5, (7a-R,S-trans) 4,6,7,7a,8,9,10,11a-octahydro-4-methyl-8-propyl-[1,4]-oxazino-[2',3'-4,5]cyclohept[1,2,3-c,d]indole hydrochloride] | 200 | – | – | – | – | –
